# Measurements as given in patent publication US20220008402A1, “INCREASED E-CADHERIN EXPRESSION OR ACTIVITY FOR THE TREATMENT OF INFLAMMATORY DISEASES” (The Cleveland Clinic Foundation, priority 2020, published 2022).
# Entries after “also recorded” stand apart in the source; their conditions may differ.
# What was measured:
# [1] = system: HT-29 cF8 cell monolayers; test: Epithelial barrier permeability in vitro (TEER, FITC-dextran flux), steady state; assay type: cell-based, human; settings: 10 μM
# Description: (§1) FIG. 1: E-cadherin-enhancing drugs decrease ionic permeability of model colonic epithelial cell monolayers. Confluent T84 (A), HT-29cF8 (B) and SK-0015 (C) cell monolayers were treated for indicated times with either vehicle, E-cadherin upregulator (ECU, 10 μM), or ML327 (10 μM). Transepithelial electrical resistance (TEER) of the cell monolayers was measured before and during the drug treatment. Data is presented as mean ±SE (n=3); *P<0.05.
# (§2) FIG. 2: E-cadherin-enhancing drugs decrease colonic epithelial permeability to large molecules. Confluent T84 (A), HT-29cF8 (B) and SK-C015 (C) cell monolayers were treated with either vehicle, ECU, or ML327, as described in the FIG. 1 legend. Trans-monolayer flux of FITC-dextran was determined at the end of the drug treatment. Data is presented as mean ±SE (n=3); **P<0.05 ***P<0.01.
# (§3) Transepithelial electrical resistance (TEER) of cultured T84, HT-29 and SK-C015 intestinal epithelial cell monolayers was measured using an EVOMX voltohmmeter (World Precision Instruments, Sarasota, Fla.). Cells were plated on collagen-coated transwell filters (pore size 3 μm, Thermo-Fisher). The resistance of cell-free collagen-coated filters was subtracted from each experimental point. An in vitro dextran flux assay was performed by a following commonly-used protocol. Intestinal epithelial cell monolayers growing on transwell filters were apically exposed to 1 mg/ml of FITC-labeled dextran (4,000 Da) in HEPES-buffered Hanks balanced salt solution (HBSS). After 120 min of incubation, HBSS samples were collected from the lower chamber, and FITC fluorescence intensity was measured using a Victor^3 V plate reader (Perkin Elmer, Waltham, Mass.) with excitation and emission wavelengths 485 and 544 nm, respectively. After subtracting the fluorescence of dextran-free HBSS the amount of FITC dextran translocated across the epithelial cell monolayer was calculated based on a calibration curve using Prism 5 software (GraphPad, La Jolla, Calif.).
# (§4) One set of experiments examined the effects of E-cadherin upregulator (ECU) and ML327 on the barrier properties of normal model intestinal epithelial cell monolayers. Three different human colonic epithelial cell lines, namely, T84, SK-0015 and HT-29 cF8 cells, were used. Cells were plated on collagen-coated transwell filters and allowed to reach confluency and differentiate for 5-7 days after plating. Thereafter, cell monolayers were exposed to either ECU (10 μM), ML327 (10 μM) or vehicle (DMSO). Transepithelial electrical resistance (TEER) was measured before and at different times after addition of E-cadherin-enhancing drugs. A transepithelial flux of FITC-dextran was examined at the end of the drug exposure to evaluate epithelial permeability to large uncharged molecules.
# T84 cell monolayers [2] = test: as above; assay type: cell-based, human; settings: 10 μM
# Description: as §1, §2, §3, §4
# SK-0015 cell monolayers = test: as above; assay type: cell-based, human; settings: 10 μM
# Description: as §1, §2, §3, §4
# T84 cell monolayers [3] = test: Wound healing assay; assay type: cell-based, human; settings: 10 μM pretreatment 24 h, migration 24-48 hours
# Description: FIG. 8: E-cadherin-enhancing drug promote collective migration of intestinal epithelial cells. Confluent T84 cell monolayers were pretreated with either vehicle, ECU (10 μM) or ML327 (10 μM) for 24 hours. Afterwards, cell monolayers were wounded and allowed to migrate into wound area in the presence of the drugs. Cell monolayers were photographed and wound closure was calculated at the indicated times. Data is presented as mean ±SE (n=3); **P<0.05, ***P<0.01.
# Confluent epithelial cell monolayers were mechanically wounded by making a thin scratch wound with a 200 μl pipette tip. The bottom of the well was marked to define the position of the wound and the monolayers were supplied with fresh cell culture medium. The images of a cell-free area at the marked region were acquired at the indicated times after wounding using an inverted bright field microscope equipped with a camera. The percentage of wound closure was calculated using an Image J software (NIH, Bethesda, Md.).
# Finally, the effects of E-cadherin-enhancing drugs on epithelial restitution (wound healing) were examined. This is an important question given the fact that epithelial wounds are frequently formed in inflamed intestinal mucosa of IBD patients and wound healing is necessary to restore the integrity of the gut barrier and to achieve remission of chronic inflammatory diseases. […]
# T84 cell monolayers [4] = test: Cytokine (TNFα/IFNγ)-induced disruption of the epithelial barrier (TEER, FITC-dextran flux); assay type: cell-based, human; settings: 10 μM pretreatment 24 h, then TNFα 10 ng/ml + IFNγ 50 ng/ml, 48 h
# Description: (§5) Confluent T84 cell monolayers were pretreated with either vehicle, or ECU (10 μM) for 24 h. Afterwards, cells were exposed to a combination of TNFα (10 ng/ml) and IFNγ (50 ng/ml) with and without ECU. (A) TEER was measured at the indicated times. (B) FITC-dextran flux was examined after 48 h incubation with cytokines. Data is presented as mean ±SE (n=3); ***P<0.001.
# as §5, with “ML327” for “ECU”, “hours.” for “h.”, “ML327.” for “ECU.”, “(n=3); **P<0.05,” for “(n=3);”
# as §3
# A combination of two cytokines were selected: tumor necrosis factor alpha (TNFα, 10 ng/ml) and interferon-gamma (IFNγ, 50 ng/ml), which are known to compromise barrier integrity and trigger apical junction disassembly in cultured epithelial cell monolayers and intestinal mucosa in mice. Indeed, 48 hour incubation of well-differentiated T84 cell monolayers with TNFα and IFNγ caused a dramatic decrease in TEER (FIGS. 3A, 4A) and increase in transepithelial dextran flux (FIGS. 3B, 4B), which indicates the increase in barrier permeability. […] Next, it was examined if ECU protects epithelial adherens junctions (AJ) and tight junctions (TJ) from cytokine-induced disassembly. Immunofluorescence labeling of a specific AJ marker, E-cadherin, and a TJ marker, ZO-1, was used to visualize structure of different junctional complexes. […]
# T84 cell monolayers [5] = test: Immunoblotting of signaling molecules after multiple wounding; assay type: cell-based, human; settings: 10 μM pretreatment 24 h; lysates 12 and 24 h post-wounding
# Description: Confluent T84 cell monolayers were pretreated with either vehicle, ECU (10 μM), or ML327 (10 μM), for 24 h, and were subjected to multiple wounding. Total cell lysates were collected at 12 and 24 h post-wounding, and the expression of different signaling molecules was determined by immunoblotting. Representative immunoblots (A) and densitometric quantification of protein band intensities from three independent experiments (B) are shown. Data are presented as a mean ±SE (n=3); *p<0.05; **p<0.01.
# To prepare total cell lysates, epithelial cell monolayers were scraped and homogenized using a Dounce homogenizer in RIPA buffer (20 mM Tris, 50 mM NaCl, 2 mM EDTA, 2 mM EGTA, 1% sodium deoxycholate, 1% Triton X-100 (TX-100), and 0.1% SDS, pH 7.4) containing protease inhibitor cocktail and phosphatase inhibitor cocktails 2 and 3 (Sigma-Aldrich). The obtained total cell lysates were cleared by centrifugation (20 min at 14,000×g), diluted with 2×SDS sample loading buffer and boiled. SDS-polyacrylamide gel electrophoresis was conducted using a standard protocol with equal amounts of total protein (10 or 20 μg) loaded per each lane. The separated proteins were transferred to nitrocellulose membranes and the membranes were blocked with 5% non-fat milk. […]
# E-cadherin = settings: literature reports; cited from earlier work
# [6] = at the end of the drug exposure
# [7] = rapid (within 24 h) and sustained (up to 96 h), vs vehicle (DMSO)
smiles,measurement,setting,value
"O=C(NCCCNC(=O)c1cccnc1O)c1cc(-c2ccccc2)on1 [ML327, N-(3-(2-hydroxynicotinamido)propyl)-5-phenylisoxazole-3-carboxamide]",Transepithelial flux of FITC-dextran,[1]; [6],significantly inhibited FITC-dextran flux
same,Transepithelial electrical resistance (TEER),"[1]; up to 96 h, vs vehicle (DMSO)",transiently increased TEER for the first 48 hours with its subsequent decrease at later times
same,Transepithelial flux of FITC-dextran,"T84 cell monolayers [2]; at the end of the drug exposure, T84",significantly inhibited FITC-dextran flux
same,Transepithelial electrical resistance (TEER),T84 cell monolayers [2]; [7],increase in TEER
same,Transepithelial flux of FITC-dextran,SK-0015 cell monolayers; [6],significantly inhibited FITC-dextran flux
same,Transepithelial electrical resistance (TEER),SK-0015 cell monolayers; [7],increase in TEER
same,Cell migration during wound healing (wound closure),T84 cell monolayers [3],significantly increased migration
same,Cytokine-induced decrease in TEER,T84 cell monolayers [4],prevents cytokine-induced disruption; also recorded: markedly attenuated
same,Cytokine-induced increase in transepithelial FITC-dextran flux,T84 cell monolayers [4],prevents cytokine-induced disruption; also recorded: markedly attenuated
same,Expression of signaling molecules (pro-migratory signaling),T84 cell monolayers [5],activation of pro-migratory signaling events
"CN(C(=S)NN=C(c1ccccn1)c1ccccn1)C1CCCCC1 [DpC, di(2-pyridyl)ketone 4-cyclohexyl-4-methyl-3-thiosemicarbazone]",E-cadherin expression,E-cadherin,stimulate E-cadherin expression
CN(Cc1cnc2nc(N)nc(N)c2n1)c1ccc(C(=O)N[C@@H](CCC(=O)O)C(=O)O)cc1 [methotrexate],E-cadherin expression,E-cadherin,stimulated E-cadherin expression
Nc1ncn([C@@H]2O[C@H](CO)[C@@H](O)[C@H]2O)c(=O)n1 [5-Axacytidine],E-cadherin expression,E-cadherin,stimulate E-cadherin expression
"CN(C)C(=S)NN=C(c1ccccn1)c1ccccn1 [Dp44mT, Di(2-pyridyl)ketone 4,4-dimethyl-3-thiosemicarbazone]",E-cadherin expression,E-cadherin,stimulate E-cadherin expression
CCCCCCCCCCCCC/C=C/[C@@H](O)[C@@H](N)COP(=O)(O)O [Sphingosine-1-Phosphate],E-cadherin expression,E-cadherin,stimulate E-cadherin expression
